Results published in ChEMBL document CHEMBL1201862, “PubChem BioAssay data set” (2004).
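Values below derive from 48-hour exposures of cells grown in 96-well plates, with endpoints linearly interpolated between the two concentrations bracketing the appropriate inhibition level. GI50 = concentration required for 50% inhibition of growth.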 Calls of active or inactive are those of the source. Rule as the data show it: active = GI50 up to about 1.1 µM and inactive = higher.

How the values were obtained:
Test in all cases: DTP human tumour cell line panel, 48 h
OVCAR-3 = test system: OVCAR-3
UACC-257 = test system: UACC-257
HCT-15 = test system: HCT-15
NCI-H226 = test system: NCI-H226
K562 = test system: K562
COLO 205 = test system: COLO 205
SW-620 = test system: SW-620
HOP-62 = test system: HOP-62
OVCAR-5 = test system: OVCAR-5
SF-539 = test system: SF-539
BT-549 = test system: BT-549
EKVX = test system: EKVX
MOLT-4 = test system: MOLT-4
HCC 2998 = test system: HCC 2998
SN12C = test system: SN12C
ACHN = test system: ACHN
CAKI-1 = test system: CAKI-1
MDA-N = test system: MDA-N
DU-145 = test system: DU-145
UO-31 = test system: UO-31
NCI-H522 = test system: NCI-H522
U-251 = test system: U-251
SNB-75 = test system: SNB-75
UACC-62 = test system: UACC-62
MDA-MB-435 = test system: MDA-MB-435
OVCAR-8 = test system: OVCAR-8
HT-29 = test system: HT-29
LOX IMVI = test system: LOX IMVI
SF-295 = test system: SF-295
SF-268 = test system: SF-268
NCI-H23 = test system: NCI-H23
SNB-19 = test system: SNB-19
SR = test system: SR
PC-3 = test system: PC-3
MDA-MB-231 = test system: MDA-MB-231
IGROV-1 = test system: IGROV-1
KM12 = test system: KM12
TK-10 = test system: TK-10
SK-MEL-5 = test system: SK-MEL-5
RXF 393 = test system: RXF 393
T47D = test system: T47D
SK-MEL-2 = test system: SK-MEL-2
HL-60 = test system: HL-60
MCF7 = test system: MCF7
NCI-H460 = test system: NCI-H460
786-0 = test system: 786-0
HOP-92 = test system: HOP-92
SK-MEL-28 = test system: SK-MEL-28
HCT-116 = test system: HCT-116
RPMI-8226 = test system: RPMI-8226
NCI/ADR-RES = test system: NCI/ADR-RES
OVCAR-4 = test system: OVCAR-4
CCRF-CEM = test system: CCRF-CEM
M14 = test system: M14
A498 = test system: A498
SK-OV-3 = test system: SK-OV-3
A549 = test system: A549
Hs-578T = test system: Hs-578T

## COc1ccc(Nc2ccc3ccccc3c2-c2c(O)ccc3ccccc23)cc1
OVCAR-3
  GI50: 14.6 µM (inactive)
UACC-257
  GI50: 22.1 µM (inactive)
HCT-15
  GI50: 17.6 µM
NCI-H226
  GI50: 16.6 µM (inactive)
K562
  GI50: 7.23 µM (inactive)
COLO 205
  GI50: 24 µM (inactive)
SW-620
  GI50: 13.9 µM (inactive)
HOP-62
  GI50: 12.6 µM (inactive)
OVCAR-5
  GI50: 16.9 µM (inactive)
SF-539
  GI50: 25.7 µM (inactive)
BT-549
  GI50: 24.4 µM (inactive)
EKVX
  GI50: 14.9 µM (inactive)
MOLT-4
  GI50: 10.1 µM (inactive)
HCC 2998
  GI50: 15.7 µM (inactive)
SN12C
  GI50: 15.5 µM (inactive)
ACHN
  GI50: 16.2 µM (inactive)
CAKI-1
  GI50: 16.1 µM (inactive)
MDA-N
  GI50: 12.6 µM (inactive)
DU-145
  GI50: 17.5 µM (inactive)
UO-31
  GI50: 13.6 µM (inactive)
NCI-H522
  GI50: 18.2 µM (inactive)
U-251
  GI50: 22.6 µM (inactive)
SNB-75
  GI50: 19.9 µM (inactive)
UACC-62
  GI50: 29.9 µM (inactive)
MDA-MB-435
  GI50: 3.99 µM (inactive)
OVCAR-8
  GI50: 18.1 µM (inactive)
HT-29
  GI50: 16.1 µM (inactive)
LOX IMVI
  GI50: 17.9 µM (inactive)
SF-295
  GI50: 18.4 µM (inactive)
SF-268
  GI50: 17.8 µM (inactive)
NCI-H23
  GI50: 15.2 µM (inactive)
SNB-19
  GI50: 17.3 µM (inactive)
SR
  GI50: 4.93 µM (inactive)
PC-3
  GI50: 15.8 µM (inactive)
MDA-MB-231
  GI50: 24.7 µM (inactive)
IGROV-1
  GI50: 11 µM (inactive)
KM12
  GI50: 16.1 µM (inactive)
TK-10
  GI50: 27.7 µM (inactive)
SK-MEL-5
  GI50: 17 µM (inactive)
RXF 393
  GI50: 20.2 µM (inactive)
T47D
  GI50: 15.6 µM (inactive)
SK-MEL-2
  GI50: 14.4 µM (inactive)
HL-60
  GI50: 31.1 µM (inactive)
MCF7
  GI50: 11.8 µM (inactive)
NCI-H460
  GI50: 16.4 µM (inactive)
786-0
  GI50: 17.1 µM (inactive)
HOP-92
  GI50: 4.16 µM (inactive)
SK-MEL-28
  GI50: 13.1 µM (inactive)
HCT-116
  GI50: 17.5 µM (inactive)
RPMI-8226
  GI50: 9.68 µM (inactive)
NCI/ADR-RES
  GI50: 15.4 µM (inactive)
OVCAR-4
  GI50: 19 µM (inactive)
CCRF-CEM
  GI50: 18.3 µM (inactive)

## CC(=O)/C(=C/n1c(=S)[nH]c2ccccc21)C(=O)Nc1ccccc1C
OVCAR-3
  GI50: > 100 µM (inactive)
UACC-257
  GI50: > 100 µM (inactive)
HCT-15
  GI50: > 100 µM
NCI-H226
  GI50: > 100 µM (inactive)
COLO 205
  GI50: > 100 µM (inactive)
SW-620
  GI50: > 100 µM (inactive)
HOP-62
  GI50: > 100 µM (inactive)
OVCAR-5
  GI50: > 100 µM (inactive)
SF-539
  GI50: > 100 µM (inactive)
BT-549
  GI50: > 100 µM (inactive)
EKVX
  GI50: > 100 µM (inactive)
MOLT-4
  GI50: > 100 µM (inactive)
HCC 2998
  GI50: > 100 µM (inactive)
SN12C
  GI50: > 100 µM (inactive)
M14
  GI50: > 100 µM (inactive)
ACHN
  GI50: > 100 µM (inactive)
CAKI-1
  GI50: > 100 µM (inactive)
MDA-N
  GI50: > 100 µM (inactive)
DU-145
  GI50: > 100 µM (inactive)
UO-31
  GI50: > 100 µM (inactive)
A498
  GI50: > 100 µM (inactive)
U-251
  GI50: > 100 µM (inactive)
SNB-75
  GI50: > 100 µM (inactive)
MDA-MB-435
  GI50: > 100 µM (inactive)
OVCAR-8
  GI50: > 100 µM (inactive)
HT-29
  GI50: > 100 µM (inactive)
LOX IMVI
  GI50: > 100 µM (inactive)
SF-295
  GI50: > 100 µM (inactive)
SF-268
  GI50: > 100 µM (inactive)
NCI-H23
  GI50: > 100 µM (inactive)
SNB-19
  GI50: > 100 µM (inactive)
MDA-MB-231
  GI50: > 100 µM (inactive)
IGROV-1
  GI50: > 100 µM (inactive)
KM12
  GI50: > 100 µM (inactive)
TK-10
  GI50: > 100 µM (inactive)
SK-MEL-5
  GI50: > 100 µM (inactive)
RXF 393
  GI50: > 100 µM (inactive)
SK-OV-3
  GI50: > 100 µM (inactive)
T47D
  GI50: > 100 µM (inactive)
SK-MEL-2
  GI50: > 100 µM (inactive)
HL-60
  GI50: > 100 µM (inactive)
NCI-H460
  GI50: > 100 µM (inactive)
786-0
  GI50: > 100 µM (inactive)
HOP-92
  GI50: > 100 µM (inactive)
SK-MEL-28
  GI50: > 100 µM (inactive)
HCT-116
  GI50: > 100 µM (inactive)
NCI/ADR-RES
  GI50: > 100 µM (inactive)
A549
  GI50: > 100 µM (inactive)
OVCAR-4
  GI50: > 100 µM (inactive)

## COc1ccc2c(c1)C/C(=C\c1cccc3ccccc13)C2=O
OVCAR-3
  GI50: 13.4 µM (inactive)
HCT-15
  GI50: 4.7 µM
NCI-H226
  GI50: 10.5 µM (inactive)
Hs-578T
  GI50: 84.9 µM (inactive)
K562
  GI50: 2.36 µM (inactive)
SW-620
  GI50: 3.98 µM (inactive)
OVCAR-5
  GI50: 94 µM (inactive)
SF-539
  GI50: 7.33 µM (inactive)
BT-549
  GI50: 5.26 µM (inactive)
EKVX
  GI50: 18.5 µM (inactive)
MOLT-4
  GI50: 4.89 µM (inactive)
HCC 2998
  GI50: 5.04 µM (inactive)
SN12C
  GI50: 8.87 µM (inactive)
M14
  GI50: 5.97 µM (inactive)
ACHN
  GI50: 27.6 µM (inactive)
CAKI-1
  GI50: > 100 µM (inactive)
UO-31
  GI50: 44.5 µM (inactive)
A498
  GI50: 23.4 µM (inactive)
U-251
  GI50: 8.71 µM (inactive)
SNB-75
  GI50: 12.4 µM (inactive)
UACC-62
  GI50: 12.5 µM (inactive)
OVCAR-8
  GI50: 21.7 µM (inactive)
HT-29
  GI50: 4.91 µM (inactive)
LOX IMVI
  GI50: 5.07 µM (inactive)
SF-268
  GI50: 18.4 µM (inactive)
NCI-H23
  GI50: 2.84 µM (inactive)
SNB-19
  GI50: 69.2 µM (inactive)
SR
  GI50: 4.65 µM (inactive)
PC-3
  GI50: 16.2 µM (inactive)
IGROV-1
  GI50: 17.3 µM (inactive)
KM12
  GI50: 5.41 µM (inactive)
TK-10
  GI50: 6.07 µM (inactive)
SK-MEL-5
  GI50: 4.05 µM (inactive)
RXF 393
  GI50: 0.0902 µM (active)
SK-OV-3
  GI50: 16.8 µM (inactive)
HL-60
  GI50: 4.95 µM (inactive)
MCF7
  GI50: 5.19 µM (inactive)
NCI-H460
  GI50: 4.99 µM (inactive)
786-0
  GI50: 15.4 µM (inactive)
SK-MEL-28
  GI50: 3.93 µM (inactive)
RPMI-8226
  GI50: 25.3 µM (inactive)
NCI/ADR-RES
  GI50: 4.66 µM (inactive)
A549
  GI50: 6.89 µM (inactive)
OVCAR-4
  GI50: 67.9 µM (inactive)
CCRF-CEM
  GI50: 2.65 µM (inactive)
